Reference: ChEMBL document CHEMBL3044795, “Synthesis and biological evaluation of novel benzoquinones as potential antimicrobial agents” (2013)
Converted amounts (≈) assume the structure as drawn.

Assays:
Format in all cases: functional
Bacillus subtilis [1] = assay: Antibacterial activity against Bacillus subtilis ATCC 6633 assessed as diamater of growth inhibition zone after 24 hr by agar cup diffusion method; also: test concentration or dose not given here
Escherichia coli [2] = assay: Antibacterial activity against Escherichia coli ATCC 11775 assessed as diamater of growth inhibition zone after 24 hr by agar cup diffusion method; also: test concentration or dose not given here
Pseudomonas aeruginosa [3] = assay: Antibacterial activity against Pseudomonas aeruginosa ATCC 10145 assessed as diamater of growth inhibition zone after 24 hr by agar cup diffusion method; also: test concentration or dose not given here
Candida albicans [4] = assay: Antifungal activity against Candida albicans DSM 70014 assessed as diamater of growth inhibition zone after 48 hr by agar cup diffusion method; also: test concentration or dose not given here
Staphylococcus aureus [5] = assay: Antibacterial activity against Staphylococcus aureus DSM 1104 assessed as growth inhibition after 24 hr by two fold serial dilution method; details: DSM 1104, 24 h
Bacillus subtilis [6] = assay: Antibacterial activity against Bacillus subtilis ATCC 6633 assessed as growth inhibition after 24 hr by two fold serial dilution method; details: ATCC 6633, 24 h
Escherichia coli [7] = assay: Antibacterial activity against Escherichia coli ATCC 11775 assessed as growth inhibition after 24 hr by two-fold serial dilution method; details: ATCC 11775, 24 h
Pseudomonas aeruginosa [8] = assay: Antibacterial activity against Pseudomonas aeruginosa ATCC 10145 assessed as growth inhibition after 24 hr by two-fold serial dilution method; details: ATCC 10145, 24 h
Pseudomonas aeruginosa [9] = assay: Antibacterial activity against Pseudomonas aeruginosa ATCC 10145 assessed as growth inhibition after 24 hr; details: ATCC 10145, 24 h
Candida albicans [10] = assay: Antifungal activity against Candida albicans DSM 70014 assessed as growth inhibition after 48 hr; details: DSM 70014, 48 h
Escherichia coli [11] = assay: Antibacterial activity against Escherichia coli ATCC 11775 assessed as growth inhibition after 24 hr; details: ATCC 11775, 24 h
Bacillus subtilis [12] = assay: Antibacterial activity against Bacillus subtilis ATCC 6633 assessed as growth inhibition after 24 hr; details: ATCC 6633, 24 h
Staphylococcus aureus [13] = assay: Antibacterial activity against Staphylococcus aureus DSM 1104 assessed as growth inhibition after 24 hr; details: DSM 1104, 24 h
Candida albicans [14] = assay: Antifungal activity against Candida albicans DSM 70014 assessed as growth inhibition after 48 hr by two-fold serial dilution method; details: DSM 70014, 48 h
Staphylococcus aureus [15] = assay: Antibacterial activity against Staphylococcus aureus DSM 1104 assessed as diamater of growth inhibition zone after 24 hr by agar cup diffusion method; also: test concentration or dose not given here
Pseudomonas aeruginosa [16] = assay: Ratio of Ampicillin MIC to compound MIC for Pseudomonas aeruginosa ATCC 10145

| SMILES | diameter of the inhibition zone (DIZ) (Bacillus subtilis [1]) [mm] | diameter of the inhibition zone (DIZ) (Escherichia coli [2]) [mm] | diameter of the inhibition zone (DIZ) (Pseudomonas aeruginosa [3]) [mm] | diameter of the inhibition zone (DIZ) (Candida albicans [4]) [mm] | MIC (Staphylococcus aureus [5]) [µg/mL] | MIC (Bacillus subtilis [6]) [µg/mL] | MIC (Escherichia coli [7]) [µg/mL] | MIC (Pseudomonas aeruginosa [8]) [µg/mL] | MBC (Pseudomonas aeruginosa [9]) [µg/mL] | MFC (Candida albicans [10]) [µg/mL] | MBC (Escherichia coli [11]) [µg/mL] | MBC (Bacillus subtilis [12]) [µg/mL] | MBC (Staphylococcus aureus [13]) [µg/mL] | MIC (Candida albicans [14]) [µg/mL] | diameter of the inhibition zone (DIZ) (Staphylococcus aureus [15]) [mm] | Ratio (Pseudomonas aeruginosa [16]) |
| --- | --- | --- | --- | --- | --- | --- | --- | --- | --- | --- | --- | --- | --- | --- | --- | --- |
| COc1ccc(/C=N/N=c2\scc(-c3cc(O)ccc3O)n2-c2ccc(Cl)cc2)cc1O | 14 | 13 | 14 | 12 | 25 (≈ 53.4 µM) | 50 (≈ 107 µM) | 100 (≈ 214 µM) | 100 (≈ 214 µM) | 100 (≈ 214 µM) | 50 (≈ 107 µM) | 100 (≈ 214 µM) | 100 (≈ 214 µM) | 50 (≈ 107 µM) | 25 (≈ 53.4 µM) | 14 | – |
| COc1ccc(/C=N/N=c2\scc(-c3cc(O)ccc3O)n2-c2ccccc2)cc1 | 15 | 14 | 14 | 12 | 50 (≈ 120 µM) | 50 (≈ 120 µM) | 50 (≈ 120 µM) | 50 (≈ 120 µM) | 50 (≈ 120 µM) | 50 (≈ 120 µM) | 50 (≈ 120 µM) | 50 (≈ 120 µM) | 50 (≈ 120 µM) | 50 (≈ 120 µM) | 14 | – |
| COc1ccc(OC)c(/C=N/N=c2\scc(-c3cc(O)ccc3O)n2-c2ccccc2)c1 | 15 | 18 | 16 | 14 | 50 (≈ 112 µM) | 12.5 (≈ 27.9 µM) | 12.5 (≈ 27.9 µM) | 12.5 (≈ 27.9 µM) | 25 (≈ 55.9 µM) | 50 (≈ 112 µM) | 25 (≈ 55.9 µM) | 25 (≈ 55.9 µM) | 50 (≈ 112 µM) | 25 (≈ 55.9 µM) | 16 | – |
| COc1cc(/C=N/N=c2\scc(-c3cc(O)ccc3O)n2-c2ccccc2)ccc1O | 16 | 14 | 15 | 15 | 12.5 (≈ 28.8 µM) | 50 (≈ 115 µM) | 12.5 (≈ 28.8 µM) | 50 (≈ 115 µM) | 50 (≈ 115 µM) | 25 (≈ 57.7 µM) | 25 (≈ 57.7 µM) | 50 (≈ 115 µM) | 25 (≈ 57.7 µM) | 12.5 (≈ 28.8 µM) | 15 | – |
| COc1ccc(/C=N/N=c2\scc(-c3cc(O)ccc3O)n2-c2ccccc2)cc1O | 15 | 24 | 12 | 14 | 100 (≈ 231 µM) | 12.5 (≈ 28.8 µM) | 50 (≈ 115 µM) | 12.5 (≈ 28.8 µM) | 25 (≈ 57.7 µM) | 100 (≈ 231 µM) | 50 (≈ 115 µM) | 25 (≈ 57.7 µM) | 100 (≈ 231 µM) | 100 (≈ 231 µM) | 16 | 4 |
| COc1ccc(/C=N/N=c2\scc(-c3cc(O)ccc3O)n2-c2ccc(C)cc2)cc1 | 13 | 15 | 16 | 15 | 50 (≈ 116 µM) | 50 (≈ 116 µM) | 12.5 (≈ 29 µM) | 50 (≈ 116 µM) | 50 (≈ 116 µM) | 100 (≈ 232 µM) | 25 (≈ 57.9 µM) | 50 (≈ 116 µM) | 50 (≈ 116 µM) | 100 (≈ 232 µM) | 15 | – |
| COc1ccc(OC)c(/C=N/N=c2\scc(-c3cc(O)ccc3O)n2-c2ccc(C)cc2)c1 | 17 | 17 | 14 | 14 | 12.5 (≈ 27.1 µM) | 12.5 (≈ 27.1 µM) | 25 (≈ 54.2 µM) | 25 (≈ 54.2 µM) | 50 (≈ 108 µM) | 50 (≈ 108 µM) | 50 (≈ 108 µM) | 25 (≈ 54.2 µM) | 25 (≈ 54.2 µM) | 50 (≈ 108 µM) | 14 | 2 |
| COc1cc(/C=N/N=c2\scc(-c3cc(O)ccc3O)n2-c2ccc(C)cc2)ccc1O | 15 | 14 | 16 | 12 | 25 (≈ 55.9 µM) | 50 (≈ 112 µM) | 50 (≈ 112 µM) | 50 (≈ 112 µM) | 100 (≈ 223 µM) | 50 (≈ 112 µM) | 100 (≈ 223 µM) | 50 (≈ 112 µM) | 50 (≈ 112 µM) | 50 (≈ 112 µM) | 15 | – |
| COc1ccc(/C=N/N=c2\scc(-c3cc(O)ccc3O)n2-c2ccc(C)cc2)cc1O | 14 | 14 | 13 | 14 | 25 (≈ 55.9 µM) | 25 (≈ 55.9 µM) | 25 (≈ 55.9 µM) | 25 (≈ 55.9 µM) | 50 (≈ 112 µM) | 25 (≈ 55.9 µM) | 50 (≈ 112 µM) | 50 (≈ 112 µM) | 50 (≈ 112 µM) | 12.5 (≈ 27.9 µM) | 16 | 2 |
| COc1ccc(/C=N/N=c2\scc(-c3cc(O)ccc3O)n2-c2ccc(Cl)cc2)cc1 | 14 | 14 | 12 | 15 | 100 (≈ 221 µM) | 50 (≈ 111 µM) | 25 (≈ 55.3 µM) | 50 (≈ 111 µM) | 50 (≈ 111 µM) | 50 (≈ 111 µM) | 50 (≈ 111 µM) | 50 (≈ 111 µM) | 100 (≈ 221 µM) | 50 (≈ 111 µM) | 15 | – |
| COc1ccc(OC)c(/C=N/N=c2\scc(-c3cc(O)ccc3O)n2-c2ccc(Cl)cc2)c1 | 15 | 18 | 16 | 13 | 50 (≈ 104 µM) | 50 (≈ 104 µM) | 25 (≈ 51.9 µM) | 50 (≈ 104 µM) | 50 (≈ 104 µM) | 100 (≈ 207 µM) | 50 (≈ 104 µM) | 50 (≈ 104 µM) | 100 (≈ 207 µM) | 50 (≈ 104 µM) | 13 | – |
| COc1cc(/C=N/N=c2\scc(-c3cc(O)ccc3O)n2-c2ccc(Cl)cc2)ccc1O | 16 | 15 | 14 | 14 | 50 (≈ 107 µM) | 50 (≈ 107 µM) | 100 (≈ 214 µM) | 100 (≈ 214 µM) | 100 (≈ 214 µM) | 100 (≈ 214 µM) | 100 (≈ 214 µM) | 50 (≈ 107 µM) | 50 (≈ 107 µM) | 100 (≈ 214 µM) | 16 | – |
